The values that follow come from US20230302018A1 (priority 2022, published 2023).

SMILES strings stand for the structures.

This assay concerns Male Wistar rats exposed to nitrogen mustard (NM). Conditions: rat, in vivo.

Turning to `CC[C@H]1[C@@H](O)[C@@H]2[C@H](CC[C@]3(C)[C@@H]([C@H](C)CCC(=O)O)CC[C@@H]23)[C@@]2(C)CC[C@@H](O)C[C@@H]12` [OCA, 6α-ethyl-chenodeoxycholic acid], the “reduction in total collagen (hydroxyproline in tissue) compared to NM alone” value is 2 fold.
